Experimental data reported in PubChem BioAssay (NCI).
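Growth conditions: 96-well plates. Treatment: test compound, 48 hours, 5 concentrations. Analysis: linear interpolation between bracketing concentrations; unreached endpoints set to highest concentration. At the GI50, growth is halved. TGI: concentration producing complete growth inhibition.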

Tests used:
Assay in all cases: NCI anticancer screen, dose series, 48 h
A498 renal = system: A498 renal
CCRF-CEM leukemia = system: CCRF-CEM leukemia
HL-60(TB) leukemia = system: HL-60(TB) leukemia
MALME-3M melanoma = system: MALME-3M melanoma
MDA-MB-435 = system: MDA-MB-435
NCI-H522 lung = system: NCI-H522 lung
RPMI-8226 leukemia = system: RPMI-8226 leukemia
RXF 393 renal = system: RXF 393 renal
SK-MEL-5 melanoma = system: SK-MEL-5 melanoma
TK-10 renal = system: TK-10 renal

SMILES	GI50 (A498 renal) [µM]	TGI (A498 renal) [µM]	GI50 (CCRF-CEM leukemia) [µM]	TGI (CCRF-CEM leukemia) [µM]	GI50 (HL-60(TB) leukemia) [µM]	TGI (HL-60(TB) leukemia) [µM]	GI50 (MALME-3M melanoma) [µM]	TGI (MALME-3M melanoma) [µM]	GI50 (MDA-MB-435) [µM]	TGI (MDA-MB-435) [µM]	GI50 (NCI-H522 lung) [µM]	TGI (NCI-H522 lung) [µM]	GI50 (RPMI-8226 leukemia) [µM]	TGI (RPMI-8226 leukemia) [µM]	GI50 (RXF 393 renal) [µM]	TGI (RXF 393 renal) [µM]	GI50 (SK-MEL-5 melanoma) [µM]	TGI (SK-MEL-5 melanoma) [µM]	GI50 (TK-10 renal) [µM]	TGI (TK-10 renal) [µM]
Cc1c(-c2c(-c3ccc(F)o3)sc3ncnc(O[C@H](Cc4ccccc4OCc4ccnn4CC(F)(F)F)C(=O)O)c23)ccc(OCCN2CCN(C)CC2)c1Cl	3.03	9.6	0.318	9.49	0.0173	0.195	3.37	7.52	1.89	6.37	0.148	4.58	< 0.0147	0.261	2.77	6.1	3.13	6.25	5.31	16.2
O=C(CN1CCN(CCCOc2c(-c3ccccc3)oc3ccccc3c2=O)CC1)Nc1ccc(Cl)cc1C(=O)c1ccccc1Cl	21.5	81.8	0.635	12	> 100	> 100	4	8.91	4.13	17	16.6	57.2	2.59	7.14	2.57	8.79	5.93	25.2	16.6	54.1
COc1cc2cc(Oc3ccc(NC(=O)Nc4cccc(C(F)(F)F)c4)cc3)c(C)nc2cc1OC	1.29	4.95	–	–	1.56	3.91	1.71	4.9	1.63	10.1	1.32	4.49	1.05	2.96	1.63	4.97	1.08	2.66	2.26	9.93
Cn1c(/C=C(\C#N)c2ccccc2)nc2c(N3CCOCC3)nc(Cl)nc21	1.51	2.87	0.295	0.971	0.462	2.61	1.45	2.86	1.3	2.78	0.74	2.47	0.254	0.804	0.89	2.14	1.64	3.01	1.82	3.24
C#CCC(Cc1cnc2nc(N)nc(N)c2n1)c1ccc(C(=O)N[C@@H](CCC(=O)O)C(=O)O)cc1 (stereo not given in full)	> 100	> 100	< 0.01	> 100	< 0.01	> 100	> 44	> 100	< 0.01	> 100	< 0.01	> 100	< 0.01	> 100	< 0.01	> 100	< 0.01	> 100	< 0.01	> 100
Nc1c(Br)cc(Br)c2c1[nH]c(=O)c1ccccc12	1.68	4.86	14	> 81.8	> 100	> 100	3.43	10.1	19.5	> 100	50.9	> 100	9.89	> 100	4.7	22.1	34	> 100	3.67	10.9
CCCc1cc2c(=O)c(C(=O)OC)c[nH]c2cc1N(CC)CC	82.3	> 100	85.8	> 100	62.5	> 100	64.8	> 100	47.5	> 100	38.5	> 100	63.2	> 100	31.4	85	31.9	> 100	69.1	> 100
O=C1NC(O)C(c2c[nH]c3ccccc23)=C1c1c[nH]c2ccccc12 (stereo not given)	> 25	> 25	> 25	> 25	> 25	> 25	> 25	> 25	> 25	> 25	> 25	> 25	> 25	> 25	> 25	> 25	> 25	> 25	> 25	> 25
O=C1C(Cl)=C(Nc2cccc(Cl)c2)C(=O)N1Cc1ccccc1Cl	11.8	24.8	0.457	> 100	3.15	19.6	–	–	1.01	4.09	2.87	23.3	1.82	26	1.26	6.53	3.37	14.3	12.1	30
O=C1c2cc3c(cc2-c2c1c1ccc(Cl)cc1c(=O)n2CCCNCCO)OCO3	1.27	2.65	0.0347	1	0.0367	1.08	–	–	1.03	2.49	0.0372	1.58	0.145	3.27	0.926	2.59	0.387	1.58	1.5	2.94
O=C1C(=O)c2ccccc2C(O)=C1CC=C(Br)Br	6.21	31.3	2.7	> 100	5.37	30.4	18.2	60.4	5.26	98	5.28	29.9	1.57	31.1	14.3	80.7	1.28	16.6	–	–
C=C1C(=O)O[C@H]2[C@H]1CC/C(Cn1cc(-c3cc(C(F)(F)F)cc(C(F)(F)F)c3)nn1)=C\CC[C@@]1(C)O[C@@H]21	0.437	1.71	0.169	0.821	0.19	0.484	0.521	2.16	0.743	2.08	0.122	0.27	0.221	0.522	0.0274	0.102	1.47	2.78	–	–
